Laboratory results reported in patent publication US20230312556A1, “ARYLAMIDE COMPOUND, PHARMACEUTICAL COMPOSITION COMPRISING SAME, AND PREPARATION METHOD THEREFOR AND USE THEREOF” (SICHUAN KELUN-BIOTECH BIOPHARMACEUTICAL CO., LTD., priority 2020, published 2023).

Key:
[1] = molecular target: mutant CRAF enzyme (RAF1 Y340D and Y341D) (Homo sapiens (Human), UniProt P04049, Y340D/Y341D); test: RAF inhibition assay (TB-PMAP2K1 kit), mutant CRAF; type: biochemical; settings: FLUORESCEIN-MAP2K1 substrate, 60 min reaction
mutant CRAF enzyme (RAF1 Y340D and Y341D), sequence (P04049 whole entry Y340D/Y341D): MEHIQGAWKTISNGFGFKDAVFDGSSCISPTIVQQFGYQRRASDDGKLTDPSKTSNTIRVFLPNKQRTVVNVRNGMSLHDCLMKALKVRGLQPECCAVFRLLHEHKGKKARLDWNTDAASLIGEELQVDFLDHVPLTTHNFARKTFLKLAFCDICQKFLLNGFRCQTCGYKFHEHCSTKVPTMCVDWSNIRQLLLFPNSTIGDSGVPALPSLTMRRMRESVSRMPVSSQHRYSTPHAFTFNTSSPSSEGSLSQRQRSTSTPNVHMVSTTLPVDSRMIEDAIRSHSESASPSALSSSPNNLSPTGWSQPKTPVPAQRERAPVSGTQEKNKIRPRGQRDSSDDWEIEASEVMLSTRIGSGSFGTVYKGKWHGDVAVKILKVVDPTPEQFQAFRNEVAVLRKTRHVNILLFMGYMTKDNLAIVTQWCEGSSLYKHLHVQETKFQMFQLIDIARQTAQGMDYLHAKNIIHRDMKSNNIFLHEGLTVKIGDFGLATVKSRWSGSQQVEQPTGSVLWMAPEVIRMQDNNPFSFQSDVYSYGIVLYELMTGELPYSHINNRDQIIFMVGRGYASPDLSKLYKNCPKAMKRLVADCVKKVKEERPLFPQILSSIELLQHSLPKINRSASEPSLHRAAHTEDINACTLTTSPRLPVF

[2] = molecular target: mutant BRAF enzyme (BRAF-V600E) (Homo sapiens (Human), UniProt P15056, V600E); test: RAF inhibition assay (TB-PMAP2K1 kit), BRAF-V600E; type: biochemical; settings: FLUORESCEIN-MAP2K1 substrate, 60 min reaction
mutant BRAF enzyme (BRAF-V600E), sequence (P15056 whole entry V600E): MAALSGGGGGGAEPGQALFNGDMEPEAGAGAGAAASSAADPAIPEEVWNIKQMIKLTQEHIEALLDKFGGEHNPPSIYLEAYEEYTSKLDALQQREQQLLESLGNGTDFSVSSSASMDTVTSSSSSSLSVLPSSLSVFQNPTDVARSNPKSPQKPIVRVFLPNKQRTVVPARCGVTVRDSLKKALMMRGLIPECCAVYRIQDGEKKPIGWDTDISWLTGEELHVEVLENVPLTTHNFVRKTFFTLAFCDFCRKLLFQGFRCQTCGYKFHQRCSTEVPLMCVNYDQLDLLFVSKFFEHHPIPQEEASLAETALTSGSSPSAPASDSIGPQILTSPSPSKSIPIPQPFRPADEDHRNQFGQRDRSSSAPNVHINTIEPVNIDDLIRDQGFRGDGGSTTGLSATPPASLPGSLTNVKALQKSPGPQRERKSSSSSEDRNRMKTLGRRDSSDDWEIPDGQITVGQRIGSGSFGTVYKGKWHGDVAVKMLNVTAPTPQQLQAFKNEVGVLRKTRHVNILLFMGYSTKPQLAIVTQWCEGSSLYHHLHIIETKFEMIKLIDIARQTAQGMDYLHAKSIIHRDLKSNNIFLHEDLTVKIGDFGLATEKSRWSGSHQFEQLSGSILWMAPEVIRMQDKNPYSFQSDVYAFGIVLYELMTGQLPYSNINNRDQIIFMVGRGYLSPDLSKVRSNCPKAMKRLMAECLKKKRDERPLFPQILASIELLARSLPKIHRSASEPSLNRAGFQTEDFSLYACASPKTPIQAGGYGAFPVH

Compound	IC50 [1]	IC50 [2]
Cc1ccc2c(C(O)c3cccc(C(F)(F)F)c3)nccc2c1NC(=O)c1csc2c(N)ncnc12 (stereo not drawn) [Compound 23, 4-amino-N-(1-(hydroxy(3-(trifluoromethyl)phenyl)methyl)-6-methylisoquinolin-5-yl)thieno[3,2-d]pyrimidine-7-carboxamide]	3.93 ± 1 nM	13.2 ± 3.17 nM
Cc1ccc2c(C(O)c3ccc(Cl)cc3F)nccc2c1NC(=O)c1csc2c(N)ncnc12 (stereo not drawn) [Compound 28, 4-amino-N-(1-((4-chloro-2-fluorophenyl)(hydroxy)methyl)-6-methylisoquinolin-5-yl)thieno[3,2-d]pyrimidine-7-carboxamide]	3.48 ± 0.48 nM	4.58 ± 0.72 nM
Cc1ccc2c(C(C)Oc3ccccc3)nccc2c1NC(=O)c1csc2c(N)ncnc12 (stereo not drawn) [Compound 35, 4-amino-N-(6-methyl-1-(1-phenoxyethyl)isoquinolin-5-yl)thieno[3,2-d]pyrimidine-7-carboxamide]	15.4 ± 1.89 nM	50.4 ± 12.6 nM
Cc1ccc2c(Nc3cccc(Cl)c3)nccc2c1NC(=O)c1cccc2c(N)ncnc12 [Compound 38, 4-amino-N-(1-((3-chlorophenyl)amino)-6-methylisoquinolin-5-yl)quinazoline-8-carboxamide]	10.8 ± 2.02 nM	9.5 ± 2.68 nM
Cc1ccc2c(Nc3ccccc3F)nccc2c1NC(=O)c1cccc2c(N)ncnc12 [Compound 39, 4-amino-N-(1-((2-fluorophenyl)amino)-6-methylisoquinolin-5-yl)quinazoline-8-carboxamide]	2.6 ± 0.21 nM	1.74 ± 0.23 nM
Cc1ccc2c(Nc3ccc(Cl)cc3F)nccc2c1NC(=O)c1cccc2c(N)ncnc12 [Compound 41, 4-amino-N-(1-((4-chloro-2-fluorophenyl)amino)-6-methylisoquinolin-5-yl)quinazoline-8-carboxamide]	25 ± 9.32 nM	12.7 ± 2.28 nM
Cc1ccc2c(Nc3cccc(C(F)(F)F)c3)nccc2c1NC(=O)c1cnc2c(N)ncnn12 [Compound 43, 4-amino-N-(6-methyl-1-((3-(trifluoromethyl)phenyl)amino)isoquinolin-5-yl)imidazo[2,1-f][1,2,4]triazine-7-carboxamide]	4.49 ± 0.95 nM	4.84 ± 0.97 nM
Cc1ccc2c(Nc3cccc(Cl)c3F)nccc2c1NC(=O)c1cc(F)cc2c(N)ncnc12 [Compound 46, 4-amino-N-(1-((3-chloro-2-fluorophenyl)amino)-6-methylisoquinolin-5-yl)-6-fluoroquinazoline-8-carboxamide]	38.1 ± 21.9 nM	16.2 ± 5.93 nM
Cc1ccc2c(Nc3ccc(F)c(Cl)c3)nccc2c1NC(=O)c1cnc2c(N)ncnn12 [Compound 58, 4-amino-N-(1-((3-chloro-4-fluorophenyl)amino)-6-methylisoquinolin-5-yl)imidazo[2,1-f][1,2,4]triazine-7-carboxamide]	2.68 ± 0.13 nM	4.47 ± 0.6 nM
COc1ccc(Nc2nccc3c(NC(=O)c4cccc5c(N)ncnc45)c(C)ccc23)c(F)c1 [Compound 60, 4-amino-N-(1-((2-fluoro-4-methoxyphenyl)amino)-6-methylisoquinolin-5-yl)quinazoline-8-carboxamide]	3.14 ± 0.09 nM	6.31 ± 1.09 nM
Cc1ccc2c(Nc3ccc(F)cc3F)nccc2c1NC(=O)c1cccc2c(N)ncnc12 [Compound 67, 4-amino-N-(1-((2,4-difluorophenyl)amino)-6-methylisoquinolin-5-yl)quinazoline-8-carboxamide]	5.76 ± 1.04 nM	8.66 ± 0.95 nM
Cc1ccc2c(Nc3cc(Cl)ccc3F)nccc2c1NC(=O)c1cccc2c(N)ncnc12 [Compound 73, 4-amino-N-(1-((5-chloro-2-fluorophenyl)amino)-6-methylisoquinolin-5-yl)quinazoline-8-carboxamide]	8.78 ± 1.48 nM	11.9 ± 2.3 nM
Cc1ccc2c(Nc3ccc(F)cc3F)nccc2c1NC(=O)c1cc(F)cc2c(N)ncnc12 [Compound 85, 4-amino-N-(1-((2,4-difluorophenyl)amino)-6-methylisoquinolin-5-yl)-6-fluoroquinazoline-8-carboxamide]	4.43 ± 0.32 nM	9.02 ± 0.86 nM
Cc1ccc2c(Nc3cc(S(C)(=O)=O)ccc3F)nccc2c1NC(=O)c1cccc2c(N)ncnc12 [Compound 89, 4-amino-N-(1-((2-fluoro-5-(methylsulfonyl)phenyl)amino)-6-methylisoquinolin-5-yl)quinazoline-8-carboxamide]	4.26 ± 0.16 nM	7.58 ± 0.51 nM
Cc1ccc2c(Nc3cc(F)c(F)cc3F)nccc2c1NC(=O)c1cccc2c(N)ncnc12 [Compound 90, 4-amino-N-(6-methyl-1-((2,4,5-trifluorophenyl)amino)isoquinolin-5-yl)quinazoline-8-carboxamide]	14.2 ± 6.59 nM	18.6 ± 2.25 nM
Nc1ncnc2c(C(=O)Nc3c(F)ccc4c(Nc5cccc(Cl)c5F)nccc34)cccc12 [Compound 92, 4-amino-N-(1-((3-chloro-2-fluorophenyl)amino)-6-fluoroisoquinolin-5-yl)quinazoline-8-carboxamide]	10.8 ± 4.78 nM	5.34 ± 0.75 nM
Cc1ccc2c(Nc3cccc(Cl)c3F)nccc2c1NC(=O)c1ccc(F)c2c(N)ncnc12 [Compound 93, 4-amino-N-(1-((3-chloro-2-fluorophenyl)amino)-6-methylisoquinolin-5-yl)-5-fluoroquinazoline-8-carboxamide]	5.73 ± 0.36 nM	5.03 ± 0.54 nM
Cc1ccc2c(Nc3c(F)cc(F)cc3F)nccc2c1NC(=O)c1cccc2c(N)ncnc12 [Compound 94, 4-amino-N-(6-methyl-1-((2,4,6-trifluorophenyl)amino)isoquinolin-5-yl)quinazoline-8-carboxamide]	4.24 ± 0.17 nM	3.46 ± 0.22 nM
